Patent US20220119354A1, “DIAMINO-SUBSTITUTED PYRIDINES AND PYRIMIDINES AS HERBICIDES” (FMC Corporation, priority 2019, published 2022)

Legend:
Assay type in all cases: in vivo
[1] = test system: ragweed (common ragweed, Ambrosia elatior); experiment: Test A postemergence, ragweed; settings: 0 to 100 scale, 0 no effect, 100 complete control
In short: (§1)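 Post: seedlings 2–10 cm, 1–2 leaves, foliar spray. Pre: soil spray after sowing in loam/sand blend. Both formulated in non-phytotoxic solvent with surfactant; injury scored visually 0–100 after ~10 d.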

[2] = test system: galium (catchweed bedstraw, Galium aparine); experiment: Test A postemergence, galium; settings: 0 to 100 scale, 0 no effect, 100 complete control
In short: as §1

[3] = test system: pigweed (Amaranthus retroflexus); experiment: Test A postemergence, pigweed; settings: 0 to 100 scale, 0 no effect, 100 complete control
In short: as §1

[4] = test system: blackgrass (Alopecurus myosuroides); experiment: Test A postemergence, blackgrass; settings: 0 to 100 scale, 0 no effect, 100 complete control
In short: as §1

kochia (Kochia scoparia) [5] = experiment: Test A postemergence, kochia; settings: 0 to 100 scale, 0 no effect, 100 complete control
In short: as §1

[6] = test system: sedge, umbrella (small-flower umbrella sedge, Cyperus difformis); experiment: Test B flooded paddy test, umbrella sedge; settings: Flood, 250 g ai/ha, applied to paddy water, 2-leaf stage, visual evaluation after 13 to 15 d
In short: (§2)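 2-leaf seedlings; pots flooded 3 cm above soil; compound added straight to paddy water; depth maintained. Greenhouse 13–15 d. Visual rating vs controls, 0–100 scale (0 = no effect, 100 = complete control).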

[7] = test system: barnyardgrass (Echinochloa crus-galli); experiment: Test B flooded paddy test, barnyardgrass; settings: Flood, 250 g ai/ha, applied to paddy water, 2-leaf stage, visual evaluation after 13 to 15 d
In short: as §2

[8] = test system: ryegrass, Italian (Lolium multiflorum); experiment: Test A preemergence, Italian ryegrass; settings: 0 to 100 scale, 0 is no effect, 100 is complete control
In short: as §1

kochia (Kochia scoparia) [9] = experiment: Test A preemergence, kochia; settings: 0 to 100 scale, 0 is no effect, 100 is complete control
In short: as §1

[10] = test system: ducksalad (Heteranthera limosa); experiment: Test B flooded paddy test, ducksalad; settings: Flood, 250 g ai/ha, applied to paddy water, 2-leaf stage, visual evaluation after 13 to 15 d
In short: as §2

[11] = test system: wheat (Triticum aestivum); experiment: Test A postemergence, wheat; settings: 0 to 100 scale, 0 no effect, 100 complete control
In short: as §1

[12] = test system: barnyardgrass (Echinochloa crus-galli); experiment: Test A postemergence, barnyardgrass; settings: 0 to 100 scale, 0 no effect, 100 complete control
In short: as §1

[13] = test system: barnyardgrass (Echinochloa crus-galli); experiment: Test A preemergence, barnyardgrass; settings: 0 to 100 scale, 0 is no effect, 100 is complete control
In short: as §1

[14] = test system: ragweed (common ragweed, Ambrosia elatior); experiment: Test A preemergence, ragweed; settings: 0 to 100 scale, 0 is no effect, 100 is complete control
In short: as §1

rice (Oryza sativa) = experiment: Test B flooded paddy test, rice; settings: Flood, 250 g ai/ha, applied to paddy water, 2-leaf stage, visual evaluation after 13 to 15 d
In short: as §2

[15] = test system: ryegrass, Italian (Lolium multiflorum); experiment: Test A postemergence, Italian ryegrass; settings: 0 to 100 scale, 0 no effect, 100 complete control
In short: as §1

corn (Zea mays) = experiment: Test A postemergence, corn; settings: 0 to 100 scale, 0 no effect, 100 complete control
In short: as §1

[16] = test system: pigweed (Amaranthus retroflexus); experiment: Test A preemergence, pigweed; settings: 0 to 100 scale, 0 is no effect, 100 is complete control
In short: as §1

[17] = test system: foxtail, giant (Setaria faberii); experiment: Test A postemergence, giant foxtail; settings: 0 to 100 scale, 0 no effect, 100 complete control
In short: as §1

[18] = test system: foxtail, giant (Setaria faberii); experiment: Test A preemergence, giant foxtail; settings: 0 to 100 scale, 0 is no effect, 100 is complete control
In short: as §1

`Nc1nc(N[C@@H](c2cc3ccccc3s2)C2CC2)ncc1C(F)(F)F` [Compound 84] was tested, and the “Plant response rating, Ragweed” value ([1]; 125 g ai/ha) was 40, the “Plant response rating, Ragweed” value ([1]; 500 g ai/ha) was 90 and the “Plant response rating, Galium” value ([2]; 125 g ai/ha) was 60. The “Plant response rating, Galium” value ([2]; 500 g ai/ha) was 80, the “Plant response rating, Pigweed” value ([3]; 125 g ai/ha) was 100 and the “Plant response rating, Pigweed” value ([3]; 500 g ai/ha) was 100. For the same compound, the “Plant response rating, Blackgrass” value ([4]; 125 g ai/ha) was 0, the “Plant response rating, Blackgrass” value ([4]; 500 g ai/ha) was 0 and the “Plant response rating, Kochia” value (kochia (Kochia scoparia) [5]; 125 g ai/ha) was 80. For the same compound, the “Plant response rating, Kochia” value (kochia (Kochia scoparia) [5]; 500 g ai/ha) was 90, the “Plant response rating, Sedge, Umbrella (0 to 100 scale, 0 is no effect, 100 is complete control)” value [6] was 90 and the “Plant response rating, Barnyardgrass (0 to 100 scale, 0 is no effect, 100 is complete control)” value [7] was 85. For the same compound, the “Ryegrass, Italian plant response rating” value ([8]; 125 g ai/ha) was 70, the “Ryegrass, Italian plant response rating” value ([8]; 500 g ai/ha) was 90 and the “Kochia plant response rating” value (kochia (Kochia scoparia) [9]; 125 g ai/ha) was 90. For the same compound, the “Kochia plant response rating” value (kochia (Kochia scoparia) [9]; 500 g ai/ha) was 90, the “Plant response rating, Ducksalad (0 to 100 scale, 0 is no effect, 100 is complete control)” value [10] was 65 and the “Plant response rating, Wheat” value ([11]; 125 g ai/ha) was 0. The “Plant response rating, Wheat” value ([11]; 500 g ai/ha) was 0, the “Plant response rating, Barnyardgrass” value ([12]; 125 g ai/ha) was 70 and the “Plant response rating, Barnyardgrass” value ([12]; 500 g ai/ha) was 100. The “Barnyardgrass plant response rating” value ([13]; 125 g ai/ha) was 90, the “Barnyardgrass plant response rating” value ([13]; 500 g ai/ha) was 90 and the “Ragweed plant response rating” value ([14]; 125 g ai/ha) was 100. For the same compound, the “Ragweed plant response rating” value ([14]; 500 g ai/ha) was 100, the “Plant response rating, Rice (0 to 100 scale, 0 is no effect, 100 is complete control)” value (rice (Oryza sativa)) was 20 and the “Plant response rating, Ryegrass, Italian” value ([15]; 125 g ai/ha) was 0. The “Plant response rating, Ryegrass, Italian” value ([15]; 500 g ai/ha) was 70, the “Plant response rating, Corn” value (corn (Zea mays); 125 g ai/ha) was 0 and the “Plant response rating, Corn” value (corn (Zea mays); 500 g ai/ha) was 0. The “Pigweed plant response rating” value ([16]; 125 g ai/ha) was 100, the “Pigweed plant response rating” value ([16]; 500 g ai/ha) was 100 and the “Plant response rating, Foxtail, Giant” value ([17]; 125 g ai/ha) was 50. The “Plant response rating, Foxtail, Giant” value ([17]; 500 g ai/ha) was 90, the “Foxtail, Giant plant response rating” value ([18]; 125 g ai/ha) was 90 and the “Foxtail, Giant plant response rating” value ([18]; 500 g ai/ha) was 100.

In the case of `Cc1ccc2c(C(C)Nc3ncc(C(F)(F)F)c(N)n3)coc2c1` (stereo not drawn) [Compound 85], the “Plant response rating, Ragweed” value ([1]; 125 g ai/ha) is reported as 50, the “Plant response rating, Ragweed” value ([1]; 500 g ai/ha) is reported as 90 and the “Plant response rating, Galium” value ([2]; 125 g ai/ha) is reported as 80. For the same compound, the “Plant response rating, Galium” value ([2]; 500 g ai/ha) was 90, the “Plant response rating, Pigweed” value ([3]; 125 g ai/ha) was 90 and the “Plant response rating, Pigweed” value ([3]; 500 g ai/ha) was 10. The “Plant response rating, Blackgrass” value ([4]; 125 g ai/ha) was 40, the “Plant response rating, Blackgrass” value ([4]; 500 g ai/ha) was 50 and the “Plant response rating, Kochia” value (kochia (Kochia scoparia) [5]; 125 g ai/ha) was 70. For the same compound, the “Plant response rating, Kochia” value (kochia (Kochia scoparia) [5]; 500 g ai/ha) was 90, the “Plant response rating, Sedge, Umbrella (0 to 100 scale, 0 is no effect, 100 is complete control)” value [6] was 85 and the “Plant response rating, Barnyardgrass (0 to 100 scale, 0 is no effect, 100 is complete control)” value [7] was 0. For the same compound, the “Ryegrass, Italian plant response rating” value ([8]; 125 g ai/ha) was 40, the “Ryegrass, Italian plant response rating” value ([8]; 500 g ai/ha) was 50 and the “Kochia plant response rating” value (kochia (Kochia scoparia) [9]; 125 g ai/ha) was 30. For the same compound, the “Kochia plant response rating” value (kochia (Kochia scoparia) [9]; 500 g ai/ha) was 90, the “Plant response rating, Ducksalad (0 to 100 scale, 0 is no effect, 100 is complete control)” value [10] was 30 and the “Plant response rating, Wheat” value ([11]; 125 g ai/ha) was 30. For the same compound, the “Plant response rating, Wheat” value ([11]; 500 g ai/ha) was 30, the “Plant response rating, Barnyardgrass” value ([12]; 125 g ai/ha) was 50 and the “Plant response rating, Barnyardgrass” value ([12]; 500 g ai/ha) was 80. The “Barnyardgrass plant response rating” value ([13]; 125 g ai/ha) was 70, the “Barnyardgrass plant response rating” value ([13]; 500 g ai/ha) was 100 and the “Ragweed plant response rating” value ([14]; 125 g ai/ha) was 90. The “Ragweed plant response rating” value ([14]; 500 g ai/ha) was 100, the “Plant response rating, Rice (0 to 100 scale, 0 is no effect, 100 is complete control)” value (rice (Oryza sativa)) was 0 and the “Plant response rating, Ryegrass, Italian” value ([15]; 125 g ai/ha) was 50. For the same compound, the “Plant response rating, Ryegrass, Italian” value ([15]; 500 g ai/ha) was 60, the “Plant response rating, Corn” value (corn (Zea mays); 125 g ai/ha) was 10 and the “Plant response rating, Corn” value (corn (Zea mays); 500 g ai/ha) was 40. For the same compound, the “Pigweed plant response rating” value ([16]; 125 g ai/ha) was 100, the “Pigweed plant response rating” value ([16]; 500 g ai/ha) was 100 and the “Plant response rating, Foxtail, Giant” value ([17]; 125 g ai/ha) was 40. For the same compound, the “Plant response rating, Foxtail, Giant” value ([17]; 500 g ai/ha) was 90, the “Foxtail, Giant plant response rating” value ([18]; 125 g ai/ha) was 70 and the “Foxtail, Giant plant response rating” value ([18]; 500 g ai/ha) was 100.

For `CC(Nc1ncc(C(F)(F)F)c(N)n1)c1cc2ccc(F)c(F)c2s1` (stereo not drawn) [Compound 86], the “Plant response rating, Ragweed” value ([1]; 125 g ai/ha) was 20, the “Plant response rating, Ragweed” value ([1]; 500 g ai/ha) was 80 and the “Plant response rating, Galium” value ([2]; 125 g ai/ha) was 70. For the same compound, the “Plant response rating, Galium” value ([2]; 500 g ai/ha) was 70, the “Plant response rating, Pigweed” value ([3]; 125 g ai/ha) was 90 and the “Plant response rating, Pigweed” value ([3]; 500 g ai/ha) was 100. The “Plant response rating, Blackgrass” value ([4]; 125 g ai/ha) was 0, the “Plant response rating, Blackgrass” value ([4]; 500 g ai/ha) was 10 and the “Plant response rating, Kochia” value (kochia (Kochia scoparia) [5]; 125 g ai/ha) was 70. The “Plant response rating, Kochia” value (kochia (Kochia scoparia) [5]; 500 g ai/ha) was 90, the “Plant response rating, Sedge, Umbrella (0 to 100 scale, 0 is no effect, 100 is complete control)” value [6] was 98 and the “Plant response rating, Barnyardgrass (0 to 100 scale, 0 is no effect, 100 is complete control)” value [7] was 60. For the same compound, the “Ryegrass, Italian plant response rating” value ([8]; 125 g ai/ha) was 20, the “Ryegrass, Italian plant response rating” value ([8]; 500 g ai/ha) was 70 and the “Kochia plant response rating” value (kochia (Kochia scoparia) [9]; 125 g ai/ha) was 80. For the same compound, the “Kochia plant response rating” value (kochia (Kochia scoparia) [9]; 500 g ai/ha) was 100, the “Plant response rating, Ducksalad (0 to 100 scale, 0 is no effect, 100 is complete control)” value [10] was 75 and the “Plant response rating, Wheat” value ([11]; 125 g ai/ha) was 0. For the same compound, the “Plant response rating, Wheat” value ([11]; 500 g ai/ha) was 0, the “Plant response rating, Barnyardgrass” value ([12]; 125 g ai/ha) was 40 and the “Plant response rating, Barnyardgrass” value ([12]; 500 g ai/ha) was 50. For the same compound, the “Barnyardgrass plant response rating” value ([13]; 125 g ai/ha) was 70, the “Barnyardgrass plant response rating” value ([13]; 500 g ai/ha) was 90 and the “Ragweed plant response rating” value ([14]; 125 g ai/ha) was 100. The “Ragweed plant response rating” value ([14]; 500 g ai/ha) was 100, the “Plant response rating, Rice (0 to 100 scale, 0 is no effect, 100 is complete control)” value (rice (Oryza sativa)) was 0 and the “Plant response rating, Ryegrass, Italian” value ([15]; 125 g ai/ha) was 0. For the same compound, the “Plant response rating, Ryegrass, Italian” value ([15]; 500 g ai/ha) was 50, the “Plant response rating, Corn” value (corn (Zea mays); 125 g ai/ha) was 0 and the “Plant response rating, Corn” value (corn (Zea mays); 500 g ai/ha) was 0. The “Pigweed plant response rating” value ([16]; 125 g ai/ha) was 100, the “Pigweed plant response rating” value ([16]; 500 g ai/ha) was 100 and the “Plant response rating, Foxtail, Giant” value ([17]; 125 g ai/ha) was 60. For the same compound, the “Plant response rating, Foxtail, Giant” value ([17]; 500 g ai/ha) was 60, the “Foxtail, Giant plant response rating” value ([18]; 125 g ai/ha) was 70 and the “Foxtail, Giant plant response rating” value ([18]; 500 g ai/ha) was 100.
